Laboratory results taken from patent US10471059B2, “Compositions and methods of using tyrosine kinase inhibitors” (YALE UNIVERSITY, priority 2015, dated 2019).

What was measured:
[1] = test system: PZR Y241 and Y263 phosphorylation; test: Shp2E76A-induced PZR tyrosyl phosphorylation in NIH 3T3 cells, immunoblot; type: cell-based; conditions: cells expressing activated Shp2 (Shp2-E76A)
[2] = test system: PZR Y241 and Y263 phosphorylation; test: Shp2 mutant-induced PZR tyrosyl phosphorylation in HEK-293 cells, immunoblot; type: cell-based; conditions: HEK-293 cells transfected with Shp2 mutants; 5 μM SU6656

CC(C)(C)n1nc(-c2ccc(Cl)cc2)c2c(N)ncnc21 [PP2]
concentration at which Shp2-E76A-induced PZR hyper tyrosyl phosphorylation was inhibited [1]: 5 µM

CN(C)S(=O)(=O)c1ccc2c(c1)/C(=C/c1cc3c([nH]1)CCCC3)C(=O)N2 [SU6656]
concentration at which Shp2-E76A-induced PZR hyper tyrosyl phosphorylation was inhibited [1]: 1 µM
NS and NSML Shp2 mutant-induced PZR hypertyrosyl phosphorylation [2]: can be inhibited
